Measurements published in patent US5747239A, “Synthetic peptides specific for the detection of antibodies to HCV, diagnosis of HCV infection and preventions thereof as vaccines” (United Biomedical, Inc., priority 1994, dated 1998).

How the values were obtained:
Format in all cases: binding, human
[1] = system: antibodies to HCV; assay: Envelope/NS-1 peptide ELISA, anti-HCV positive plasmapheresis donors with elevated ALT (Panel III); conditions: for % Relative Immunoreactivity: envelope/NS-1 peptides, Panel III (17 samples), peptide 254B as a standard
Protocol: To select a panel of samples with reactivity to peptides from the envelope/NS-1 region, 97 such samples from anti-HCV positive plasmapheresis donors with elevated ALT levels were tested with peptide 254B. […] 17 samples with the greatest reactivity with peptide 254B were chosen to form a third panel (Panel III) to screen for the immunoreactivity of the other 20 peptides from the envelope/NS-1 region. The individual absorbance values of each of the 17 samples on the four peptides with the greatest reactivity, i.e. 255C (pep7), 254B (pep8), 247B (pep9), and 246D (pep10), are listed in Table 8b.

[2] = system: antibodies to HCV; assay: Envelope/NS-1 peptide ELISA, samples nonreactive on HCV core (VIIIE) and NS-4 (IIH) peptides
Protocol: In addition to screening on Panel III samples, the envelope/NS-1 peptides were also tested against samples from plasmapheresis donors who had elevated ALT levels but were non-reactive on the HCV from the core (e.g. peptide VIIIE) and NS-4 (e.g. peptide IIH) regions screening EIA. Six of these samples, which may represent early seroconversion samples, were reactive on one or more envelope/NS-1 peptide (Table 8d). The absorbance values on these HCV EIA nonreactive samples are lower than the values found for Panel III samples. In the case of Pep7 and Pep10, their shorter segments, 225B and 246C, respectively, gave greater immunoreactivity, in contrast to the performance on Panel III.

[3] = system: antibodies to HCV; assay: Peptide ELISA for relative immunoreactivity, 8 member HCV serum panel (Panel I); parameters: relative immunoreactivity value: concentration or dose not given beside the values; conditions: for % IP: NS-5 peptides (Table 12), pep11 as a standard
Protocol: As an example to illustrate how relative (%) immunoreactivity for HCV synthetic peptides is measured, wells of 96-well plates are coated for 1 hour at 37° C., with each of the following peptides: IIH, V, VIIIE and pep11 at 5 ug/mL at 100 uL per well in 10 mM NaHCO3 buffer, pH 9.5. The peptide coated wells were then incubated with 250 uL of 3% by weight of gelatin in PBS in 37° C. for 1 hour to block non-specificprotein binding sites, followed by three washes with PBS containing 0.05% by volume of TWEEN 20 and then dried. The test specimens containing a panel of eight well-characterized HCV antibody positive patient sera were diluted with PBS containing 20% by volume normal goat serum, 1% by weight gelatin and 0.05% by volume TWEEN 20 at dilutions of 1:20 volume to volume, respectively. 200 uL of the diluted specimens were added to each of the wells and allowed to react for 15 minutes at 37° C.
The wells were then washed six times with 0.05% by volume TWEEN 20 in PBS in order to remove unbound antibodies. Horseradish peroxidase conjugated goat anti-human IgG was used as a second antibody tracer to bind with the HCV antibody-peptide antigen complex formed in positive wells. 100 uL of peroxidase labeled goat anti-human IgG at a dilution of 1:1800 in 1% by volume normal goat serum, 0.05% by volume TWEEN 20 in PBS was added to each well and incubated at 37° C. for another 15 minutes.
The wells were washed six times with 0.05% by volume TWEEN 20 PBS to remove unbound antibody and reacted with 100 uL of the substrate mixture containing 0.04% by weight orthophenylenediamine (OPD) and 0.12% by volume hydrogen peroxide in sodium citrate buffer, pH 5.0.
This substrate mixture was used to detect the peroxidase label by forming a colored product. Reactions were stopped by the addition of 100 uL of 1.0M H2 SO4 and the A492 mm measured. Results of relative immunoreactivity for each of the peptides obtained from this study are shown in Table A using peptide II H as the reference.

[4] = system: antibodies to HCV; assay: NS-5 peptide ELISA, group of 5 HCV positive sera; conditions: for % Relative Immunoreactivity: NS-5 peptides, 5 HCV positive sera, Pep5 = 100
Protocol: Wells of 96-well plates were coated for 1 hour at 37° C. with each of the three peptides derived from the NS-5 region of HCV (designated as pep4, pep5 and pep6).

[5] = system: antibodies to HCV; assay: EIA of pep3 after different extraction conditions following HF cleavage; conditions: for % Decrease: Pep3' versus Pep3
Description: Peptide extraction conditions after HF cleavage were altered to test for their effect on peptide immunopotency after HF cleavage. Pep3 (or 279A) was extracted with acetic acid at pH 2, whereas pep3' was extracted with ammonium bicarbonate at pH 8.

[6] = sample 1 (first line, number not given)

Substance | % Relative Immunoreactivity [1] | Absorbance [2, 6] | Absorbance ([2]; sample 2) | Absorbance ([2]; sample 3) | Absorbance ([2]; sample 4) | Absorbance ([2]; sample 5) | % IP ([3]; Panel I) | % Relative Immunoreactivity [4] | EIA reading per sample ([4]; Sample No. 1) | EIA reading per sample ([4]; Sample No. 2) | EIA reading per sample ([4]; Sample No. 3) | EIA reading per sample ([4]; Sample No. 4) | EIA reading per sample ([4]; Sample No. 5) | also measured
CLTVPASAYQVRNSTGLYHVTNDCPNSSIVYEAHDAILHTPGCVPCVREGNVSRC [255C] | 51.4% | 0.098 | 0.346 | 0.300 | 0.021 | 0.231 |  |  |  |  |  |  |  | Absorbance ([1]; Panel III sample 2): 0.017; Absorbance ([1]; Panel III sample 3): 0.235; Absorbance ([1]; Panel III sample 4): 0.066; Absorbance ([1]; Panel III sample 5): 0.711; Absorbance ([1]; Panel III sample 6): 0.106; Absorbance ([1]; Panel III sample 7): 0.784; Absorbance ([1]; Panel III sample 8): 0.037; Absorbance ([1]; Panel III sample 9): 0.019; Absorbance ([1]; Panel III sample 10): 0.313; Absorbance ([1]; Panel III sample 11): 0.035; Absorbance ([1]; Panel III sample 14): 0.047; Absorbance ([1]; Panel III sample 15): 0.012; Absorbance ([1]; Panel III sample 16): 0.064; Absorbance ([1]; Panel III sample 17): 0.077; Absorbance ([2]; sample 6): 0.017
DAELIEANLLWRQEMGGNITRVESENKVVILDSFDPLVAEEDER [Pep5] |  |  |  |  |  |  | 47.6% | 100.0% | 2.942 | 0.370 | 0.616 | 1.316 | 1.783 | 
DPSHITAEAAGRRLARGSPPSVASSSASQLSAPSLKATCTANHDSP [Pep4] |  |  |  |  |  |  | 17.1% | 28.6% | 0.468 | 0.659 | 0.675 | 0.063 | 0.144 | 
INSTALNCNESLNTGWLAGLIYQHKFNSSGCPERLASC [246C] | 97.6% | 0.240 | 0.015 | 0.023 | 0.046 | 0.009 |  |  |  |  |  |  |  | 
Pep3': pep3 (279A) sequence extracted with ammonium bicarbonate at pH 8 after HF cleavage (GCSGGAYDIIICDECHSTDATSILGIGTVLDQAETAG) |  |  |  |  |  |  |  |  |  |  |  |  |  | share of the panel reactive ([3]; Panel I): half of the panel is reactive; relative immunoreactivity value ([3]; Panel I, compared with peptide VIIIE): 23.9%; absorbances of some additional reactive samples ([3]; additional reactive samples): > 2000 mA; A492 nm (mA) by EIA ([5]; NRC: Negative Control): 1 mA; % Decrease ([5]; SRC): 77.6%; % Decrease ([5]; WRC): 89.6%; % Decrease ([5]; sample #1): 78.8%; % Decrease ([5]; sample #2): 90.0%; % Decrease ([5]; sample #3): 91.5%; % Decrease ([5]; sample #4): 99.3%; % Decrease ([5]; sample #5): 88.0%
